The record followed here is ChEMBL document CHEMBL5104186, “Structure-Activity Relationship and Neuroprotective Activity of 1,5-Dihydro-2H-naphtho[1,2-b][1,4]diazepine-2,4(3H)-diones as P2X4 Receptor Antagonists” (J Med Chem, 2022).

SMILES strings stand for the structures. pIC50: −log10 of the molar value.

The target in the experiment is T1, P2X purinoceptor 4 (Rattus norvegicus, UniProt P51577).
T1 sequence (P51577 whole entry): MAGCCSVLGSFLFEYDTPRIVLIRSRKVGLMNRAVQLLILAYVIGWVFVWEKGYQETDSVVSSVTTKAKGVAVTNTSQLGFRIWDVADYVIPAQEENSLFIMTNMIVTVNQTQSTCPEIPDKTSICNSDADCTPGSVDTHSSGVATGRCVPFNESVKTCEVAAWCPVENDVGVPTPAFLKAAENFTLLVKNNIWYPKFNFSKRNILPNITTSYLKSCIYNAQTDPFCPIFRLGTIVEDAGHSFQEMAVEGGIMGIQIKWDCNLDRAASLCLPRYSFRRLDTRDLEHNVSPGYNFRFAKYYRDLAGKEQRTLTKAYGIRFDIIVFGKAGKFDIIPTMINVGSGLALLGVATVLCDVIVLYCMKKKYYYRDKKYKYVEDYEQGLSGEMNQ
In words: Antagonist activity at rat P2X4R expressed in HEK293 cells preincubated for 2 mins followed by ATP addition and measured after 4 mins. It is filed as cell-based.

As a reminder, the pIC50 is the IC50 on a negative log10 scale, so that one unit is a factor of ten. Turning to `O=C1CN=C(c2cccc(Br)c2)c2oc3ccccc3c2N1`, the negative-log IC50 (pIC50) is 6.12.
